Results reported in patent publication US8507690B2, “Thiazole derivative and use thereof as VAP-1 inhibitor” (R-Tech Ueno, Ltd., priority 2008, dated 2013).

What was measured:
[1] = target: T1, human VAP-1 enzyme (SSAO) (Homo sapiens, UniProt Q16853); assay: Enzyme activity inhibitory effect on human VAP-1 enzyme (SSAO), radiochemical-enzyme assay with 14C-benzylamine; assay type: biochemical; conditions: human VAP-1 (SSAO) cell extract, 14C-benzylamine 1×10^−5 mol/l, 37° C. 2 hours
T1 construct: made in house; cell extract used
T1 sequence (Q16853 1-763): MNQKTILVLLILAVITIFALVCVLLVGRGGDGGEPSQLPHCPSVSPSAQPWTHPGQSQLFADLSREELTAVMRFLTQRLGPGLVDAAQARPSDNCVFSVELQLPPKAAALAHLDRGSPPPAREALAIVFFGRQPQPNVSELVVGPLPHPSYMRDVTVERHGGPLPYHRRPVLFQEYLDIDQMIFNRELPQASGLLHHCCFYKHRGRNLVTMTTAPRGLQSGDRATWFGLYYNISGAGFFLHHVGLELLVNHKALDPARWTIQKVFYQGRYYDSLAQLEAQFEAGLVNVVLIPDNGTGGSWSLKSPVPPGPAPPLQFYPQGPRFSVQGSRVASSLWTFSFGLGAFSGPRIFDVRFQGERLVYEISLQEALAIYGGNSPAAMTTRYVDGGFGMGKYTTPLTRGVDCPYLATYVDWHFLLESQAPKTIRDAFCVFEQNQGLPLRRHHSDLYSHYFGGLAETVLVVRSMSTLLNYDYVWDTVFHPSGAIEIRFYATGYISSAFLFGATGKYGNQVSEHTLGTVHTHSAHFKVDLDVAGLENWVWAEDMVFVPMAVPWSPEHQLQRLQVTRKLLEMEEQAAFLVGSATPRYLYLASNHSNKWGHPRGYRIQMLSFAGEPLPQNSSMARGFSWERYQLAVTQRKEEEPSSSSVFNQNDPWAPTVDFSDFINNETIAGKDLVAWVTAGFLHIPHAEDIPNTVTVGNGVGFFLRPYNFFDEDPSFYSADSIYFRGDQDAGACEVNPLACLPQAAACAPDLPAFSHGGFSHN
Description: (§1) The compounds of the present invention obtained in Production Examples were examined for the enzyme activity inhibitory effect on human and rat VAP-1 enzyme (SSAO) by the following method.
(§2) The VAP-1 enzyme (SSAO) activity in both human and rat was measured by a radiochemical-enzyme assay using ^14C-benzylamine as an artificial substrate. Human or rat VAP-1 was cloned from the cDNA library and expressed in a cell. The cell extract was preincubated with a test compound solution (final concentration 1×10^−7-1×10^−11 mol/l) at room temperature for 20 minutes. Then, ^14C-benzylamine (final concentration 1×10^−5 mol/l) was added, and the mixture was incubated at a final volume of 200 μl at 37° C. for 2 hours. The enzyme reaction was stopped by addition of 2 mol/l (200 μl) citric acid. The oxidation product was extracted with 1 ml toluene/ethyl acetate (1:1), and the radioactivity thereof was measured by a liquid scintillation counter.

rat VAP-1 enzyme (SSAO) = target: T2, rat VAP-1 enzyme (SSAO) (Rattus norvegicus, UniProt O08590); assay: Enzyme activity inhibitory effect on rat VAP-1 enzyme (SSAO), radiochemical-enzyme assay with 14C-benzylamine; assay type: biochemical; conditions: rat VAP-1 (SSAO) cell extract, 14C-benzylamine 1×10^−5 mol/l, 37° C. 2 hours
T2 construct: made in house; cell extract used
T2 sequence (O08590 1-763): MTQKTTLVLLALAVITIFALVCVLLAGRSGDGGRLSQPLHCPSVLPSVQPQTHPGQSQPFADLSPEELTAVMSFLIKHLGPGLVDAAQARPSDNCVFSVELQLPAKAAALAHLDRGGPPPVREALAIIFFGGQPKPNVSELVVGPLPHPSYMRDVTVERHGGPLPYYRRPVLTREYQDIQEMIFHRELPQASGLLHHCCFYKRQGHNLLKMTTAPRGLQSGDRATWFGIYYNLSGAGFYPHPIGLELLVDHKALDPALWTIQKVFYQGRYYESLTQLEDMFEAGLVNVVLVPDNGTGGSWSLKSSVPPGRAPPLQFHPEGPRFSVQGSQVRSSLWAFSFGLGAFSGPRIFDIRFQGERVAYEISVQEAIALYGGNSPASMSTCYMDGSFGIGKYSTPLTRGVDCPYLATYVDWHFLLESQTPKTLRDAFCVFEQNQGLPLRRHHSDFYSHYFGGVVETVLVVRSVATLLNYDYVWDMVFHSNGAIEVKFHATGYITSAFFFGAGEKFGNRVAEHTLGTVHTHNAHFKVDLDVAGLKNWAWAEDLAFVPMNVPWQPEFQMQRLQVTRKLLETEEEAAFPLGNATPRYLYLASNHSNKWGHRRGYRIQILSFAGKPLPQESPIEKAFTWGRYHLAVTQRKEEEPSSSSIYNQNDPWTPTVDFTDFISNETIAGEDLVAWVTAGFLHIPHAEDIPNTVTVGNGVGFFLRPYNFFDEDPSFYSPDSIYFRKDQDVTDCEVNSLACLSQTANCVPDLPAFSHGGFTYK
Description: as §1, §2

Compound	IC50 [1] [nM]	melting point [°C]	IC50 (rat VAP-1 enzyme (SSAO)) [nM]
CC(=O)Nc1nc(CCc2ccc(CNC(=O)NN)c(F)c2)cs1.Cl [Production Example 20, N-(4-{2-[2-(acetylamino)-1,3-thiazol-4-yl]ethyl}-2-fluorobenzyl)hydrazinecarboxamide hydrochloride]	2.8	172 to 175	1.6
CC(=O)Nc1nc(CCc2cccc(CCOC(=O)NN)c2)cs1.Cl [Production Example 12, 2-(3-{2-[2-(acetylamino)-1,3-thiazol-4-yl]ethyl}phenyl)ethyl hydrazinecarboxylate hydrochloride]	3.2	138 to 140	0.5
CC(=O)Nc1nc(CCc2csc(CCCOC(=O)NN)c2)cs1.Cl [Production Example 15, 3-(4-{2-[2-(acetylamino)-1,3-thiazol-4-yl]ethyl}thiophen-2-yl)propyl hydrazinecarboxylate hydrochloride]	13.4	150 to 153	0.6
CC(=O)Nc1nc(CCc2cc(CCCOC(=O)NN)cs2)cs1.Cl [Production Example 16, 3-(5-{2-[2-(acetylamino)-1,3-thiazol-4-yl]ethyl}thiophen-3-yl)propyl hydrazinecarboxylate hydrochloride]	16.7	98 to 102	10.5
CC(=O)Nc1nc(CCc2cccc(CNC(=O)NN)c2)cs1.Cl [Production Example 27, N-(3-{2-[2-(acetylamino)-1,3-thiazol-4-yl]ethyl}benzyl)hydrazinecarboxamide hydrochloride]	2.1	123 to 127	0.6
CC(=O)Nc1nc(CCc2cccc(COC(=O)NN)c2)cs1.Cl [Production Example 11, 3-{2-[2-(acetylamino)-1,3-thiazol-4-yl]ethyl}benzyl hydrazinecarboxylate hydrochloride]	1.3	113 to 119	0.2
CC(=O)Nc1nc(CCc2ccc(COC(=O)NN)cc2)cs1.Cl [Production Example 2, 4-{2-[2-(acetylamino)-1,3-thiazol-4-yl]ethyl}benzyl hydrazinecarboxylate hydrochloride]	0.9	162 to 164	0.7
CC(=O)Nc1nc(CCc2ccc(CNC(=O)NN)cc2)cs1.Cl [Production Example 18, N-(4-{2-[2-(acetylamino)-1,3-thiazol-4-yl]ethyl}benzyl)hydrazinecarboxamide hydrochloride]	4	167 to 169	1.3
CC(=O)Nc1nc(C(=O)Nc2ccc(CCOC(=O)NN)cc2)cs1.Cl [Production Example 9, 2-[4-({[2-(acetylamino)-1,3-thiazol-4-yl]carbonyl}amino)phenyl]ethyl hydrazinecarboxylate hydrochloride]	17.1	225 to 233	1

Further lines, results first:

IC50 [1] [nM]	melting point [°C]	IC50 (rat VAP-1 enzyme (SSAO)) [nM]	Compound
12.2	171 to 173	2.3	CC(=O)Nc1nc(CCc2ccc(CCNC(=O)NN)cc2)cs1.Cl [Production Example 19, N-[2-(4-{2-[2-(acetylamino)-1,3-thiazol-4-yl]ethyl}phenyl)ethyl]hydrazinecarboxamide hydrochloride]
108	152 to 157	2.1	CC(=O)Nc1nc(CCc2cc(C)c(CCCNC(=O)NN)s2)cs1.Cl [Production Example 33, N-[3-(5-{2-[2-(acetylamino)-1,3-thiazol-4-yl]ethyl}-3-methylthiophen-2-yl)propyl]hydrazinecarboxamide hydrochloride]
18.8	178 to 181	3.8	CC(=O)Nc1nc(CCc2ccc(CCNC(=O)NN)s2)cs1.Cl [Production Example 30, N-[2-(5-{2-[2-(acetylamino)-1,3-thiazol-4-yl]ethyl}thiophen-2-yl)ethyl]hydrazinecarboxamide hydrochloride]
1.8	158 to 161	0.6	CC(=O)Nc1nc(CCc2ccc(CNC(=O)NN)s2)cs1.Cl [Production Example 29, N-[2-(5-{2-[2-(acetylamino)-1,3-thiazol-4-yl]ethyl}thiophen-2-yl)methyl]hydrazinecarboxamide hydrochloride]
